For one molecule, Bmax (fM (mg of protein)-1) results are on record in ChEMBL document CHEMBL1126578, “Synthesis and optical resolution of (R)- and (S)-trans-7-Hydroxy-2-[N-propyl-N-(3'-iodo-2'-propenyl)amino]tetralin: a new D3 dopamine receptor ligand” (J Med Chem, 1993).

This test concerns the target D(3) dopamine receptor (Rattus norvegicus) (UniProt P19020). The experiment in a line: Saturable binding was tested dopamine receptor D3 in rat striatal membrane homogenate. Format: cell membranes. As to conditions: Striatum.

D(3) dopamine receptor (Rattus norvegicus), sequence (P19020 whole entry): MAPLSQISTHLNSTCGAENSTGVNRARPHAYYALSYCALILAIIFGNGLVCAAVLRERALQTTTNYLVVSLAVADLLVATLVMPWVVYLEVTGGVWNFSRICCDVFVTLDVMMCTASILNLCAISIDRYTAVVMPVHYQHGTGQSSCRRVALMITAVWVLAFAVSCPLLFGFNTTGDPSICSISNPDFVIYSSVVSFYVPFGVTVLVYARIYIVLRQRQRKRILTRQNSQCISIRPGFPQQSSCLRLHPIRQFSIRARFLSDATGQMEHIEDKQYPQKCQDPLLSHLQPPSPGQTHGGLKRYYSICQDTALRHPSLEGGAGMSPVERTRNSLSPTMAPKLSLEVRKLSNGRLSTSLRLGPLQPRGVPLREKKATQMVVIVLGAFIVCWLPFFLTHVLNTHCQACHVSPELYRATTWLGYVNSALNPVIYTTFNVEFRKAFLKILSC

Regarding `CCCN(C/C=C/I)C1CCc2ccc(O)cc2C1` (stereo unspecified), the Bmax (fM (mg of protein)-1) came out at 240.
